Drawing on patent US9346815B2, “5-chloro-2-difluoromethoxyphenyl pyrazolopyrimidine compounds, compositions and methods of use thereof” (Genentech, Inc., priority 2014, dated 2016), this text covers EC50 and Ki for 20 compounds.

For orientation: EC50 means the concentration needed to bring the measured effect to its halfway point. The term Ki denotes the dissociation constant of the complex between target and ligand, obtained from inhibition or displacement.

Assay [1] concerns JAK1-dependent STAT6 phosphorylation downstream of IL-13 stimulation in BEAS-2B human bronchial epithelial cells. Nature of the assay: JAK1 pathway assay in BEAS-2B cells (IL-13-pSTAT6, MSD). It is filed as cell-based. Particulars: read-out: IL13-pSTAT6 EC50 (uM)_BEAS-2B. In a few lines:
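TF-1 cells starved of GM-CSF overnight, assayed serum-free; BEAS-2B cells in complete growth medium. Lysate pSTAT6 measured by MSD; EC50 derived.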

Assay [2] has as its target isolated recombinant JAK2 kinase domain (Homo sapiens (Human), UniProt O60674). The assay is described as follows: JAK2 enzyme assay (Caliper LabChip, peptide phosphorylation). It is filed as biochemical. Particulars: 25 μM ATP.
The target of assay [3] is isolated recombinant JAK1 kinase domain (Homo sapiens (Human), UniProt P23458). Nature of the assay: JAK1 enzyme assay (Caliper LabChip, peptide phosphorylation). It is filed as biochemical. Conditions: isolated recombinant JAK1 kinase domain, 25 μM ATP.
isolated recombinant JAK1 kinase domain, sequence (P23458 875-1153): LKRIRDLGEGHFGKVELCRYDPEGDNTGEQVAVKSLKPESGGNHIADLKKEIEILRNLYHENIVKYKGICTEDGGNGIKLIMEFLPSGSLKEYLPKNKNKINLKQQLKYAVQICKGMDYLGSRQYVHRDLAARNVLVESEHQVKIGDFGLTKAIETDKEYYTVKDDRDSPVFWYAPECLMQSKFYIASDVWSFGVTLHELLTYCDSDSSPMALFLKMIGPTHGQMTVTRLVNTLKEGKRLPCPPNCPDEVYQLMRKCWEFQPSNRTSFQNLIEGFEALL

isolated recombinant JAK2 kinase domain, sequence (O60674 849-1124): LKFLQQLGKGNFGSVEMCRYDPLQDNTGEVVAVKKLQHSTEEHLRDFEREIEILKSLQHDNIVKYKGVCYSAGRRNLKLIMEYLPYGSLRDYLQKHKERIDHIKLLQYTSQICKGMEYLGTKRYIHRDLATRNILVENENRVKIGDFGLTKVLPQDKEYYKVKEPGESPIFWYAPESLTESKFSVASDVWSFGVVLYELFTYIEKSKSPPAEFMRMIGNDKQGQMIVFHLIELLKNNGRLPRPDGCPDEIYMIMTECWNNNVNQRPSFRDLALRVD

For `O=C(Nc1cn(CCN[C@H]2CCOC2)nc1-c1cc(Cl)ccc1OC(F)F)c1cnn2cccnc12` [Example 399, N-(3-(5-chloro-2-(difluoromethoxy)phenyl)-1-(2-((S)-tetrahydrofuran-3-ylamino)ethyl)-1H-pyrazol-4-yl)pyrazolo[1,5-a]pyrimidine-3-carboxamide], the concentration giving a half-maximal response (EC50) in assay [1] came to 0.0232 µM. In addition, the Ki in assay [2] amounted to 0.39 nM; in assay [3], 0.9 nM.

On to `CN(C)C(=O)CN(C)C1CCN(C(=O)Cn2cc(NC(=O)c3cnn4cccnc34)c(-c3cc(Cl)ccc3OC(F)F)n2)CC1` [Example 400, N-(3-(5-chloro-2-(difluoromethoxy)phenyl)-1-(2-(4-((2-(dimethylamino)-2-oxoethyl)(methyl)amino)piperidin-1-yl)-2-oxoethyl)-1H-pyrazol-4-yl)pyrazolo[1,5-a]pyrimidine-3-carboxamide], for which the EC50 in assay [1] came out at 0.0309 µM. Further, the results for the Ki in assay [2] and in assay [3] were 1.73 nM and 0.58 nM, respectively.

For the compound `O=C(Nc1cn(CCN[C@@H]2CCOC2)nc1-c1cc(Cl)ccc1OC(F)F)c1cnn2cccnc12` [Example 402, N-(3-(5-chloro-2-(difluoromethoxy)phenyl)-1-(2-((R)-tetrahydrofuran-3-ylamino)ethyl)-1H-pyrazol-4-yl)pyrazolo[1,5-a]pyrimidine-3-carboxamide], the EC50 in assay [1] is 0.0187 µM. In addition, the figures for the inhibition constant Ki in assay [2] and in assay [3] were 0.4 nM and 0.83 nM, respectively.

For the compound `CN(C)CC(O)Cn1cc(NC(=O)c2cnn3cccnc23)c(-c2cc(Cl)ccc2OC(F)F)n1` (stereo not drawn) [Example 404, N-(3-(5-chloro-2-(difluoromethoxy)phenyl)-1-(3-(dimethylamino)-2-hydroxypropyl)-1H-pyrazol-4-yl)pyrazolo[1,5-a]pyrimidine-3-carboxamide], the EC50 in assay [1] stood at 0.0078 µM. Also, the Ki is 0.61 nM in assay [2] and 1.68 nM in assay [3].

Take `O=C(Nc1cn(CC(O)CN2CCCCC2)nc1-c1cc(Cl)ccc1OC(F)F)c1cnn2cccnc12` (stereo not drawn) [Example 405, N-(3-(5-chloro-2-(difluoromethoxy)phenyl)-1-(2-hydroxy-3-(piperidin-1-yl)propyl)-1H-pyrazol-4-yl)pyrazolo[1,5-a]pyrimidine-3-carboxamide]: the concentration giving a half-maximal response (EC50) in assay [1] was 0.0257 µM. In addition, the Ki in assay [2] came out at 0.68 nM; in assay [3], 1.73 nM.

In the case of `N#CCCN1CCN(C(=O)Cn2cc(NC(=O)c3cnn4cccnc34)c(-c3cc(Cl)ccc3OC(F)F)n2)CC1` [Example 406, N-(3-(5-chloro-2-(difluoromethoxy)phenyl)-1-(2-(4-(2-cyanoethyl)piperazin-1-yl)-2-oxoethyl)-1H-pyrazol-4-yl)pyrazolo[1,5-a]pyrimidine-3-carboxamide], the EC50 in assay [1] came to 0.0333 µM. Further, the figures for the Ki in assay [2] and in assay [3] were 0.99 nM and 0.46 nM, respectively.

Turning to `O=C1CN(C2CCN(C(=O)Cn3cc(NC(=O)c4cnn5cccnc45)c(-c4cc(Cl)ccc4OC(F)F)n3)CC2)CCN1` [Example 407, N-(3-(5-chloro-2-(difluoromethoxy)phenyl)-1-(2-oxo-2-(4-(3-oxopiperazin-1-yl)piperidin-1-yl)ethyl)-1H-pyrazol-4-yl)pyrazolo[1,5-a]pyrimidine-3-carboxamide], the EC50 in assay [1] is 0.172 µM. Further, the results for the Ki in assay [2] and in assay [3] were 0.71 nM and 0.36 nM, respectively.

For the compound `O=C(Nc1cn(CC(=O)N2CCC(C(=O)N3CCNCC3)CC2)nc1-c1cc(Cl)ccc1OC(F)F)c1cnn2cccnc12` [Example 408, N-(3-(5-chloro-2-(difluoromethoxy)phenyl)-1-(2-oxo-2-(4-(piperazine-1-carbonyl)piperidin-1-yl)ethyl)-1H-pyrazol-4-yl)pyrazolo[1,5-a]pyrimidine-3-carboxamide], the EC50 in assay [1] came out at 0.121 µM. Besides, the Ki in assay [2] is 2.29 nM; in assay [3] it was 0.59 nM.

In the case of `CC1(N2CCOCC2)CCN(C(=O)Cn2cc(NC(=O)c3cnn4cccnc34)c(-c3cc(Cl)ccc3OC(F)F)n2)CC1` [Example 410, N-(3-(5-chloro-2-(difluoromethoxy)phenyl)-1-(2-(4-methyl-4-morpholinopiperidin-1-yl)-2-oxoethyl)-1H-pyrazol-4-yl)pyrazolo[1,5-a]pyrimidine-3-carboxamide], the concentration giving a half-maximal response (EC50) in assay [1] was 0.0183 µM. For the same compound, the Ki in assay [2] stood at 1.25 nM; in assay [3], 0.6 nM.

With `CN(C)CC(=O)Cn1cc(NC(=O)c2cnn3cccnc23)c(-c2cc(Cl)ccc2OC(F)F)n1` [Example 411, N-(3-(5-chloro-2-(difluoromethoxy)phenyl)-1-(3-(dimethylamino)-2-oxopropyl)-1H-pyrazol-4-yl)pyrazolo[1,5-a]pyrimidine-3-carboxamide], in assay [1], the EC50 was determined as 0.0228 µM. Besides, the Ki in assay [2] came to 0.43 nM; in assay [3] it was 1.7 nM.

As for `CC(C#N)CN(C)C1CCN(C(=O)Cn2cc(NC(=O)c3cnn4cccnc34)c(-c3cc(Cl)ccc3OC(F)F)n2)CC1` (stereo not drawn) [Example 413, N-(3-(5-chloro-2-(difluoromethoxy)phenyl)-1-(2-(4-((2-cyanopropyl) (methyl)amino)piperidin-1-yl)-2-oxoethyl)-1H-pyrazol-4-yl)pyrazolo[1,5-a]pyrimidine-3-carboxamide], the EC50 in assay [1] stood at 0.0209 µM. Besides, the inhibitory constant (Ki) in assay [2] was 0.74 nM; in assay [3], 0.25 nM.

In the case of `CN1CCC(=CCn2cc(NC(=O)c3cnn4cccnc34)c(-c3cc(Cl)ccc3OC(F)F)n2)CC1` [Example 415, N-(3-(5-chloro-2-(difluoromethoxy)phenyl)-1-(2-(1-methylpiperidin-4-ylidene)ethyl)-1H-pyrazol-4-yl)pyrazolo[1,5-a]pyrimidine-3-carboxamide], the EC50 in assay [1] was 0.046 µM. Further, the Ki in assay [2] stood at 2.09 nM; in assay [3], 2.99 nM.

For `O=C(Nc1cn(CCN2CCNCC2=O)nc1-c1cc(Cl)ccc1OC(F)F)c1cnn2cccnc12` [Example 417, N-(3-(5-chloro-2-(difluoromethoxy)phenyl)-1-(2-(2-oxopiperazin-1-yl)ethyl)-1H-pyrazol-4-yl)pyrazolo[1,5-a]pyrimidine-3-carboxamide], in assay [1], the EC50 is 0.0934 µM. The results for the Ki in assay [2] and in assay [3] were 1.37 nM and 2.91 nM, respectively.

Turning to `CC(C#N)CNC1CCN(C(=O)Cn2cc(NC(=O)c3cnn4cccnc34)c(-c3cc(Cl)ccc3OC(F)F)n2)CC1` (stereo not drawn) [Example 419, N-(3-(5-chloro-2-(difluoromethoxy)phenyl)-1-(2-(4-(2-cyanopropyl-amino)piperidin-1-yl)-2-oxoethyl)-1H-pyrazol-4-yl)pyrazolo[1,5-a]pyrimidine-3-carboxamide], the EC50 in assay [1] was 0.0313 µM. Moreover, the values for the Ki in assay [2] and in assay [3] were 1.06 nM and 0.41 nM, respectively.

Regarding `CN(CCC#N)C1CCC(=CCn2cc(NC(=O)c3cnn4cccnc34)c(-c3cc(Cl)ccc3OC(F)F)n2)CC1` (stereo not drawn) [Example 420, N-(3-(5-chloro-2-(difluoromethoxy)phenyl)-1-(2-(4-((2-cyanoethyl)(methyl)amino)cyclohexylidene)ethyl)-1H-pyrazol-4-yl)pyrazolo[1,5-a]pyrimidine-3-carboxamide], the EC50 in assay [1] turned out to be 0.0301 µM. In addition, the results for the Ki in assay [2] and in assay [3] were 0.81 nM and 0.57 nM, respectively.

On to `N#CCCNC1CCC(=CCn2cc(NC(=O)c3cnn4cccnc34)c(-c3cc(Cl)ccc3OC(F)F)n2)CC1` (stereo not drawn) [Example 421, N-(3-(5-chloro-2-(difluoromethoxy)phenyl)-1-(2-(4-(2-cyanoethylamino)cyclohexylidene)ethyl)-1H-pyrazol-4-yl)pyrazolo[1,5-a]pyrimidine-3-carboxamide], for which, in assay [1], the EC50 was found to be 0.0498 µM. For the same compound, the figures for the Ki in assay [2] and in assay [3] were 0.89 nM and 0.65 nM, respectively.

`NC1CCC(=CCn2cc(NC(=O)c3cnn4cccnc34)c(-c3cc(Cl)ccc3OC(F)F)n2)CC1` (stereo not drawn) [Example 422, N-(1-(2-(4-amino-cyclohexylidene)ethyl)-3-(5-chloro-2-(difluoromethoxy)phenyl)-1H-pyrazol-4-yl)pyrazolo[1,5-a]pyrimidine-3-carboxamide]: the half-maximal effective concentration (EC50) in assay [1] came out at 0.061 µM. Further, the Ki came out at 1.77 nM in assay [2] and 0.89 nM in assay [3].

`CN(C)C(=O)[C@@H]1CCCN1CC1CCN(C(=O)Cn2cc(NC(=O)c3cnn4cccnc34)c(-c3cc(Cl)ccc3OC(F)F)n2)CC1` [Example 423, N-(3-(5-chloro-2-(difluoromethoxy)phenyl)-1-(2-(4-(((S)-2-(dimethylcarbamoyl)pyrrolidin-1-yl)methyl)piperidin-1-yl)-2-oxoethyl)-1H-pyrazol-4-yl)pyrazolo[1,5-a]pyrimidine-3-carboxamide]: the EC50 in assay [1] is 0.0312 µM. For the same compound, the inhibition constant Ki in assay [2] was 2.79 nM; in assay [3], 0.73 nM.

For `CN(C)C(=O)[C@@H]1CCCN1C1CCN(C(=O)Cn2cc(NC(=O)c3cnn4cccnc34)c(-c3cc(Cl)ccc3OC(F)F)n2)CC1` [Example 424, N-(3-(5-chloro-2-(difluoromethoxy)phenyl)-1-(2-(4-((S)-2-(dimethylcarbamoyl)pyrrolidin-1-yl)piperidin-1-yl)-2-oxoethyl)-1H-pyrazol-4-yl)pyrazolo[1,5-a]pyrimidine-3-carboxamide], in assay [1], the EC50 was 0.0987 µM. For the same compound, the values for the inhibitory constant (Ki) in assay [2] and in assay [3] were 3.44 nM and 1.12 nM, respectively.

Regarding `CNC(=O)[C@@H]1CCCN1C1CCN(C(=O)Cn2cc(NC(=O)c3cnn4cccnc34)c(-c3cc(Cl)ccc3OC(F)F)n2)CC1` [Example 426, N-(3-(5-chloro-2-(difluoromethoxy)phenyl)-1-(2-(4-((S)-2-(methyl-carbamoyl)pyrrolidin-1-yl)piperidin-1-yl)-2-oxoethyl)-1H-pyrazol-4-yl)pyrazolo[1,5-a]pyrimidine-3-carboxamide], the EC50 in assay [1] was 0.0394 µM. Further, the Ki in assay [2] was 1.25 nM; in assay [3] it was 0.53 nM.
